{
  "source": "paper PMC9896599",
  "about": "“Biogenesis of flavor-related linalool is diverged and genetically conserved in tree peony (Paeonia × suffruticosa)” (Horticulture Research, 2022)",
  "type_in_all_cases": "biochemical",
  "settings_in_all_cases": "10 uM GPP, 30 mM KCl, 5 mM MgCl2, 1 mM MnCl2, 50 mM HEPES pH 7.5, 30 °C, 1 h",
  "key": {"PdTPS3": {"biological_target": "T1, PdTPS3 (Paeonia delavayi, UniProt A0A9E8G7R5)", "T1 construct": "full-length cDNA, C-terminal His6, E. coli Transetta (DE3), Ni-NTA purified; the five PdTPS are 553-600 residues, about 65 kDa; plastid-localized", "T1 sequence (A0A9E8G7R5 entry or part of it)": "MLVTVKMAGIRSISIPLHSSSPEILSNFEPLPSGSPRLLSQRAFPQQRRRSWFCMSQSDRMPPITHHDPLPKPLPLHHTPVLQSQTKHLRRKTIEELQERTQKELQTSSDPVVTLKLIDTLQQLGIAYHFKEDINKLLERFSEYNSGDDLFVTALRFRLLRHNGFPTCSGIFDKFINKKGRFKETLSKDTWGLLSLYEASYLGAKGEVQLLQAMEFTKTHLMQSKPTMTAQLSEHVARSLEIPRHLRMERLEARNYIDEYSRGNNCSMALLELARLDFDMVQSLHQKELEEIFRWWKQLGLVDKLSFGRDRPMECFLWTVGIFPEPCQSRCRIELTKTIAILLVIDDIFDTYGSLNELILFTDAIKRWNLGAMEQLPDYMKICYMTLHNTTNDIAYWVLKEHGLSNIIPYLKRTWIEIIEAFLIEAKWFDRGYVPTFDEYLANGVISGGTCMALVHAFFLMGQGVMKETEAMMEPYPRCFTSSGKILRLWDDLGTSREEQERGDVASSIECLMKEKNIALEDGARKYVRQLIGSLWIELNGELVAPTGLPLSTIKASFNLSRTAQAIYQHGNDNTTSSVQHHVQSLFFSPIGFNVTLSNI", "experiment": "GC-MS of headspace product (geraniol)"}, "PdTPS4": {"biological_target": "T2, PdTPS4 (Paeonia delavayi, UniProt A0A9E8GE34)", "T2 construct": "full-length cDNA, C-terminal His6, E. coli Transetta (DE3), Ni-NTA purified; the five PdTPS are 553-600 residues, about 65 kDa; plastid-localized", "T2 sequence (A0A9E8GE34 entry or part of it)": "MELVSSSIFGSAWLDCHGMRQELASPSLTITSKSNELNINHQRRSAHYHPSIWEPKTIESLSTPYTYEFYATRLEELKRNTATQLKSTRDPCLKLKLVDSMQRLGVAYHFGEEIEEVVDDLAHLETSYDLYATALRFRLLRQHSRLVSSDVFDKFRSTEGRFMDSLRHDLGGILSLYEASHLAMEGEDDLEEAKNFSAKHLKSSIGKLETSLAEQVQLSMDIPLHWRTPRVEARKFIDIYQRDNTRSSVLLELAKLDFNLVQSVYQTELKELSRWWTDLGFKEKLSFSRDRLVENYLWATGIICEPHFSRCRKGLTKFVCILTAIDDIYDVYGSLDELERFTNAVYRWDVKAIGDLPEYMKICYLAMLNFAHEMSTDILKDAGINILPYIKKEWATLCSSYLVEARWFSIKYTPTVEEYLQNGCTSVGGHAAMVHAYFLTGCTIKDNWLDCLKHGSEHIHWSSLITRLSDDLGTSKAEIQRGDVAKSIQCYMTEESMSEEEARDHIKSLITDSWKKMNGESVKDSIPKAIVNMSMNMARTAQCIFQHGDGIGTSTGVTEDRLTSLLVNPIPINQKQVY", "experiment": "GC-MS of headspace product (linalool)"}, "PdTPS1": {"biological_target": "T3, PdTPS1 (Paeonia delavayi, UniProt A0A9E8GEC8)", "T3 construct": "full-length cDNA, C-terminal His6, E. coli Transetta (DE3), Ni-NTA purified; the five PdTPS are 553-600 residues, about 65 kDa; plastid-localized", "T3 sequence (A0A9E8GEC8 entry or part of it)": "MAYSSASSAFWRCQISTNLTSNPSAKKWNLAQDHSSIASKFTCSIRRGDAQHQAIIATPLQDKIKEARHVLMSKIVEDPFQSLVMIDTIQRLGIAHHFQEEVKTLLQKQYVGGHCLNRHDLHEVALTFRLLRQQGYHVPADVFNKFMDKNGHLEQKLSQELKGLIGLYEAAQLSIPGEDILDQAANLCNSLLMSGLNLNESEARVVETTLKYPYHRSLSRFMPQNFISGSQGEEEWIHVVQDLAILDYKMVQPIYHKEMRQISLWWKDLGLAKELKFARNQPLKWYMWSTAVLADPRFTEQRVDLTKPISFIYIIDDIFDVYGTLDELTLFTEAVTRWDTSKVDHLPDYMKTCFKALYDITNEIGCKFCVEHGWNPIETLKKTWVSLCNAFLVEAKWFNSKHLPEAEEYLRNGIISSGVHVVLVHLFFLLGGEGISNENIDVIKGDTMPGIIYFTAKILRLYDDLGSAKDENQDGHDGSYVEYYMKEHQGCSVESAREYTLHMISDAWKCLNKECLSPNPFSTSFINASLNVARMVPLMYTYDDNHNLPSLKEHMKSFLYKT", "experiment": "GC-MS of headspace product (linalool)"}},
  "data": [
    {"smiles": "CC(C)=CCC/C(C)=C/COP(=O)(O)OP(=O)(O)O", "note": "[GPP]", "values": [
      {"measurement": "GC-MS of headspace product (geraniol)", "setting": "PdTPS3", "value": "The reaction products catalyzed by PdTPS3 with GPP formed geraniol rather than linalool"},
      {"measurement": "GC-MS of headspace product (linalool)", "setting": "PdTPS4", "value": "both PdTPS1 and PdTPS4 catalyzed the formation of acyclic terpene alcohols with linalool"},
      {"measurement": "GC-MS of headspace product (linalool)", "setting": "PdTPS1", "value": "both PdTPS1 and PdTPS4 catalyzed the formation of acyclic terpene alcohols with linalool"}
    ]}
  ]
}
